The subject of one experiment is HeLa. In words: HeLa cell cytotoxicity, dose response, cytotoxicity control for MITF activator project, CellTiter-Glo luminescence, cherry-pick samples (AID 540259). Format: functional, cell-based. The settings on record: Homo sapiens. (In general: In ATP-based viability assays light output follows the ATP content of the culture.)
A short description of experiment [1]: Luminescence Cell-Based Dose Confirmation to Identify Activators of 5'UTR Stem-Loop Driven Alpha-Synuclein mRNA Translation in H4 Neuroglioblastoma Cells. [Related pubchem assays: 1829 (Project Summary), 1814 (Primary HTS)]. The class given is functional.
A short description of experiment [2]: Luminescence Cell-Based Dose Confirmation HTS to Identify Activators of 5'UTR Stem-Loop Driven Alpha-Synuclein mRNA Translation in H4 Neuroglioblastoma Cells. [Related pubchem assays: 1829 (Project Summary), 1814 (Primary HTS)]. Format: functional.
Experiment [3] in a line: Luminescence Cell-Based Dose Response to Identify Activators of 5'UTR Stem-Loop Driven Prion Protein mRNA Translation in H4-C Neuroglioblastoma Cells. [Related pubchem assays: 1829 (Project Summary), 1814 (Primary HTS)]. The class given is functional.
The nature of experiment [4]: Luminescence Cell-Based Dose Response HTS to Identify Activators of Luciferase Translation or Activity in H4 […] Cells. [Related pubchem assays: 1829 (Project Summary), 1814 (Primary HTS)]. The class given is functional.
Another experiment has as its system H4. In words: Luminescence Cell-Based Dose Response HTS to Identify Activators of 5'UTR Stem-Loop Driven Prion Protein mRNA Translation in H4 Neuroglioblastoma Cells. [Related pubchem assays: 1829 (Project Summary), 1814 (Primary HTS)]. Format: functional. The settings on record: Homo sapiens.
Experiment [5] is described as follows: Luminescence Cell-Based Dose Response to Identify Activators of Luciferase Translation or Activity in H4-C Neuroglioblastoma Cells. [Related pubchem assays: 1829 (Project Summary), 1814 (Primary HTS)]. The class given is functional.
A further experiment has as its target T1, Streptokinase A (Streptococcus pyogenes serotype M1, UniProt P10520).
T1 sequence (P10520 whole entry): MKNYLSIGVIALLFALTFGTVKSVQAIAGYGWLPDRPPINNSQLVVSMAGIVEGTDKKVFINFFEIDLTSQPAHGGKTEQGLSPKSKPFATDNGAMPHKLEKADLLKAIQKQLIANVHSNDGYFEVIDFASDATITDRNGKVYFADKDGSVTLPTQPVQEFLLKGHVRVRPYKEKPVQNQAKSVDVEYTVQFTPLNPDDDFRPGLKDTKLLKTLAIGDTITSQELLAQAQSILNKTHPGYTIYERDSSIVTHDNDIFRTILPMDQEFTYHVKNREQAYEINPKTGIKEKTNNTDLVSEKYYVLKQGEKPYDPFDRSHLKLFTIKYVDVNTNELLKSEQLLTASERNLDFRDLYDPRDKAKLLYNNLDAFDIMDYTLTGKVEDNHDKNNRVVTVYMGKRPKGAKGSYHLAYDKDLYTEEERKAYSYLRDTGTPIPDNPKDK
Kind of experiment: S. pyogenes streptokinase expression inhibitors, potency, dose response, plasminogen activation absorbance, OD405 (AID 1914).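 Further: secreted streptokinase activity via plasminogen activation per viability signal from cell pellet.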 Format: functional, Streptococcus pyogenes M1 GAS.

The next experiment deals with Streptococcus. In words: Group A Streptococcus viability loss, dose response, counter-screen for streptokinase expression inhibitor project, luminescence, BacTiterGlo (AID 1915).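 Further: potency for reduction of bacterial viability or growth.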 The class given is functional, organism-based. On the technique in general: A counterscreen serves to expose hits that act by an unwanted route or on another target.
The test system of experiment [6] is Streptococcus sp. 'group A'. Kind of experiment: growth inhibition of control SK(-) GAS strain, dose response, counter-screen for streptokinase expression inhibitor project, luminescence, kanamycin, BacTiterGlo, confirmation (AID 1900). The class given is functional, organism-based.
Experiment [7] addresses T2, RNA-binding protein pos-1 (Caenorhabditis elegans, UniProt G5EF15).
T2 sequence (G5EF15 whole entry): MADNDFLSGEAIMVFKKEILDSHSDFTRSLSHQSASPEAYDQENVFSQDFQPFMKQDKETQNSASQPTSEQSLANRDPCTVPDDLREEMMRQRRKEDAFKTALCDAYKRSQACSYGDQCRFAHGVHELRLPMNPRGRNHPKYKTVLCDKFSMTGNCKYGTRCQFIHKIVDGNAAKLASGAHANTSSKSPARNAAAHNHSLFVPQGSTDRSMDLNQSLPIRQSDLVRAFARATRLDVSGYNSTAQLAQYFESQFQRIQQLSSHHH
Kind of experiment: inhibitors of POS-1/mex-3 RNA binding, dose response, biochemical, fluorescence polarization (AID 1964).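 Further: purified POS-1 fused to maltose binding protein made in E. coli; potency of compounds blocking POS-1 binding to fluorescent RNA.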 For orientation: In fluorescence polarisation assays a small probe gives low polarisation when free and higher when bound to something large.

Experiment [8] is described as follows: Escherichia coli growth inhibition, dose response, counter-screen for MEX-5/POS-1 RNA-binding inhibitor project, luminescence, NEB5alpha (AID 1959). The class given is functional.
For experiment [9], the target named is T3, Zinc finger protein mex-5 (Caenorhabditis elegans, UniProt Q9XUB2).
T3 sequence (Q9XUB2 whole entry): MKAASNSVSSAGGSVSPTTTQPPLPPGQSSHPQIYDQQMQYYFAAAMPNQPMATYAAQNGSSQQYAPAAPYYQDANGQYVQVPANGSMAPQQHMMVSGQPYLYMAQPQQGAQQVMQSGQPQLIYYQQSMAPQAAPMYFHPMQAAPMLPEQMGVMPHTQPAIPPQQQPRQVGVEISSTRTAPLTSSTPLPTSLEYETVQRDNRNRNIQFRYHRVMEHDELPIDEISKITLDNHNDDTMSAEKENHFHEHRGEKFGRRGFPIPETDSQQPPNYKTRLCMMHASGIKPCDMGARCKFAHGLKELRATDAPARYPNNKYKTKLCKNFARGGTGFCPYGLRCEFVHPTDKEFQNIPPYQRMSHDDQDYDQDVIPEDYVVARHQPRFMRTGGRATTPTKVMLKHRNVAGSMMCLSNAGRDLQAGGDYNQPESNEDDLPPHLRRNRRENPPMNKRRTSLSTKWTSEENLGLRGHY
Kind of experiment: MEX-5/TCR-2 RNA interaction inhibitors, dose response, biochemical, C. elegans, fluorescence polarization (AID 1960).

The target of experiment [10] is Protein-tyrosine kinase 2-beta (Homo sapiens, UniProt Q14289).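 Further: potency of inhibitors of PYK2 kinase phosphorylation of poly-GT substrate.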
In experiment [11] the target is T4, Microphthalmia-associated transcription factor (Homo sapiens, UniProt O75030).
T4 sequence (O75030 whole entry): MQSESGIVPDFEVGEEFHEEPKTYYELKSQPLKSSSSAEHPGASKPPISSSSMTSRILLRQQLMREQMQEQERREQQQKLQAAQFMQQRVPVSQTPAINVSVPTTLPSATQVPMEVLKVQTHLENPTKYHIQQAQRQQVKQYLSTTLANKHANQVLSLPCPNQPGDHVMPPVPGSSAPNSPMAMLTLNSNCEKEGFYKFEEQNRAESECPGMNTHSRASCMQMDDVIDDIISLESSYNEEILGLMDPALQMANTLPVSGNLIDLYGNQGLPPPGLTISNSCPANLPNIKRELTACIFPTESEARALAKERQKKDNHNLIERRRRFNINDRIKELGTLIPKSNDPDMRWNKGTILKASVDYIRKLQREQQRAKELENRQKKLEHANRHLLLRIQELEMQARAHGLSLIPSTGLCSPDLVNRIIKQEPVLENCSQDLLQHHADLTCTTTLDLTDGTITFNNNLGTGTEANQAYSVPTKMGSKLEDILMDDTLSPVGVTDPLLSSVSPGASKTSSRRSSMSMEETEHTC
Kind of experiment: TRPM1 promoter luciferase signal decrease, dose response, MITF inhibitor project, cell-based, SK-MEL-5, cherry-picked, set 3 (AID 493073).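 Further: SK-MEL-5 melanoma cells with luciferase driven by the MITF target TRPM1 promoter.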 The class given is functional.

Experiment [12] concerns the target T5, Bcl-2-related protein A1 (Mus musculus, UniProt Q07440). In words: Bfl-1 inhibitors blocking BH3 peptide binding, confirmation, biochemical, TR-FRET, mouse Bfl-1 (AID 621).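 Further: TR-FRET binding of GST-Bfl-1 to FITC-labelled Bid peptide via terbium antibody.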
Experiment [13] has as its target T5, Bcl-2-related protein A1. In words: Bfl-1 binding inhibitors, SAR follow-up, biochemical, fluorescence polarization (AID 1070).
For experiment [14], the target named is ATP-dependent molecular chaperone HSP82 (Candida albicans (strain WO-1) (Yeast), UniProt C4YTQ8). Kind of experiment: loss of DOC-induced GRE-beta-galactosidase reporter signal, dose response, Hsp90 inhibitor project, S. cerevisiae, luminescence (AID 2400).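 Further: beta-galactosidase luminescence from glucocorticoid response element reporter as proxy for Hsp90 function; inhibitor potency where signal loss means Hsp90 inhibition.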 Format: functional, cell-based.
The nature of experiment [15]: growth suppression of PTEN-null colon cells, dose response, cell-based, HCT116 PTEN knockout (AID 1047).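 Further: HCT116 colon tumor cells with PTEN knocked out; cells exposed to compound for 60 hours before readout; potency for loss of cell viability measured by luminescence.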 Format: functional.
Experiment [16] can be described thus: cytotoxicity toward NIH3T3 fibroblasts, dose response, counter-screen, cell-based, ATP luminescence, mouse fibroblasts (AID 2010).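 Further: cells exposed to compound for about 90 hours before reading.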 The class given is functional.
Experiment [17] is described as follows: inhibitors of intracellular T. cruzi replication, confirmation, NIH3T3 host cells, beta-gal luminescence (AID 2044).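 Further: intracellular parasites grown in NIH/3T3 mouse fibroblasts as host cells; luminescent beta-galactosidase reporter signal from transgenic T. cruzi replicating inside host cells; inhibitors lower the luminescence signal.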 Format: functional, cell-based.
Experiment [18] concerns the target T6, Serine/threonine-protein phosphatase (Candida dubliniensis (strain CD36 / CBS 7987 / NCPF 3949 / NRRLY-17841) (Yeast), UniProt B9W6M3).
T6 sequence (B9W6M3 whole entry): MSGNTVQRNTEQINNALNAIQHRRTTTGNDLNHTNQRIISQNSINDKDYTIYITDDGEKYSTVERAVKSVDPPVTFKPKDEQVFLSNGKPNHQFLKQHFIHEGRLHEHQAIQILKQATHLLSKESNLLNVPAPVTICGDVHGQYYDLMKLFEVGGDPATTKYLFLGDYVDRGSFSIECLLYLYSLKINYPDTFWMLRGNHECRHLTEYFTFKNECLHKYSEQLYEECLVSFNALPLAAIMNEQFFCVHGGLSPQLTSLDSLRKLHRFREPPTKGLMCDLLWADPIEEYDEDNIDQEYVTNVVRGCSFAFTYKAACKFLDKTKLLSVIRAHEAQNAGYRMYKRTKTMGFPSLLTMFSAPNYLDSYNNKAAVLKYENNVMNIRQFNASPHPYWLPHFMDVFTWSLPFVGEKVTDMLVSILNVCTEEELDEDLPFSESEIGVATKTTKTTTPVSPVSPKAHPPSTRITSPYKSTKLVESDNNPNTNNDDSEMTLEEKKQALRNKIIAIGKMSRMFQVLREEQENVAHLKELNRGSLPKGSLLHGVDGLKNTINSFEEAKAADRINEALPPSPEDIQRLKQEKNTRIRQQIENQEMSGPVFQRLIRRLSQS
Kind of experiment: calcineurin pathway inhibitors in yeast reporter, dose response, S. cerevisiae, CDRE-lacZ, luminescence, secondary (AID 2388).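 Further: yeast reporter cells carrying a calcineurin-responsive lacZ construct stimulated with calcium chloride; luminescent beta-galactosidase reporter signal in whole cells rather than isolated phosphatase activity; potency for inhibition where a drop in reporter signal means calcineurin blockade.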 The class given is functional, cell-based.

A short description of experiment [19]: NIH-3T3 fibroblast cytotoxicity, dose response, cytotoxicity control, cell-based, fluorescence, Alamar Blue, secondary assay (AID 2327).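 Further: NIH-3T3 mouse fibroblasts cultured with fluconazole at 8 µg/mL.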 The class given is functional.
The nature of experiment [20]: C. albicans growth with fluconazole, confirmation, fluorescence, retest (AID 2467). The class given is functional, cell-based.
Experiment [21] can be described thus: growth suppression of beta-catenin-knockout colon cells, dose response, cell-based, HCT116, human colon tumor (AID 1045).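 Further: HCT116 colon tumor cells with beta catenin knocked out; cells exposed to compound for 60 hours.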 Format: functional.

The structures appear in SMILES notation. Active and inactive are the calls of the source. For most assays here, no stated cut-off is given here; in the data, actives have a measured EC50 and inactives only a lower limit. Some results are limits rather than exact numbers.

T5 sequence (Q07440 whole entry): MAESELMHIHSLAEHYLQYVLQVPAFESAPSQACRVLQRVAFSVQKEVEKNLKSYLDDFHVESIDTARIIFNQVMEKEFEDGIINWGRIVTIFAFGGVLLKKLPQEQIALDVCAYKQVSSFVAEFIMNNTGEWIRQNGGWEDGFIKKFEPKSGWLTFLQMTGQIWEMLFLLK
Chain of Protein-tyrosine kinase 2-beta (Q14289 whole entry): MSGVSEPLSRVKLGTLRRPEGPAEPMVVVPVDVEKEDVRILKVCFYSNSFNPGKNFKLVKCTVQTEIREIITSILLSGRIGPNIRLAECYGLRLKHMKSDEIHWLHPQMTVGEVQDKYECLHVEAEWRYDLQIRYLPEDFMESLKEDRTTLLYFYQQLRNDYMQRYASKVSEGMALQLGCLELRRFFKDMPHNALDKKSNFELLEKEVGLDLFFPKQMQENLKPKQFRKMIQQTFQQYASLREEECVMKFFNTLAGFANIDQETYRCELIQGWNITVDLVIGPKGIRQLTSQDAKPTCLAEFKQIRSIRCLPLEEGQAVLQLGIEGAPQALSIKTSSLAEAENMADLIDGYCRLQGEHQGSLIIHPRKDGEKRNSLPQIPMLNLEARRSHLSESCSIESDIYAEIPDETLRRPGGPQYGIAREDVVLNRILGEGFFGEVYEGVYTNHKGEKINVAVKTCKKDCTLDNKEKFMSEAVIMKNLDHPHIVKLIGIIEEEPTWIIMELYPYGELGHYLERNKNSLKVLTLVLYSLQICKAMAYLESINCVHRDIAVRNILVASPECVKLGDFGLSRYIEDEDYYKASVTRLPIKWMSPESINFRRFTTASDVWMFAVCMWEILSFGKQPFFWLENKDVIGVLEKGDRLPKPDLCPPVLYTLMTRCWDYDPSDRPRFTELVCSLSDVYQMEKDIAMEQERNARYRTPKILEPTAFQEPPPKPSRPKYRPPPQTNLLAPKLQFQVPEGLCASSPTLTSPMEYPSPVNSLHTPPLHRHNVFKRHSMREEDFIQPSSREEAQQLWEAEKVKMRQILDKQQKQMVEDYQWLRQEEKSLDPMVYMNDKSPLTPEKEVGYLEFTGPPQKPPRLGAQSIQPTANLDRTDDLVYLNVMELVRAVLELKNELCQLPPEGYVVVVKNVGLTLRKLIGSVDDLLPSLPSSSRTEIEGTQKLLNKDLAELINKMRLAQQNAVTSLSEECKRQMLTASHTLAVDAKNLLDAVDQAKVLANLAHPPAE
Chain of ATP-dependent molecular chaperone HSP82 (C4YTQ8 whole entry): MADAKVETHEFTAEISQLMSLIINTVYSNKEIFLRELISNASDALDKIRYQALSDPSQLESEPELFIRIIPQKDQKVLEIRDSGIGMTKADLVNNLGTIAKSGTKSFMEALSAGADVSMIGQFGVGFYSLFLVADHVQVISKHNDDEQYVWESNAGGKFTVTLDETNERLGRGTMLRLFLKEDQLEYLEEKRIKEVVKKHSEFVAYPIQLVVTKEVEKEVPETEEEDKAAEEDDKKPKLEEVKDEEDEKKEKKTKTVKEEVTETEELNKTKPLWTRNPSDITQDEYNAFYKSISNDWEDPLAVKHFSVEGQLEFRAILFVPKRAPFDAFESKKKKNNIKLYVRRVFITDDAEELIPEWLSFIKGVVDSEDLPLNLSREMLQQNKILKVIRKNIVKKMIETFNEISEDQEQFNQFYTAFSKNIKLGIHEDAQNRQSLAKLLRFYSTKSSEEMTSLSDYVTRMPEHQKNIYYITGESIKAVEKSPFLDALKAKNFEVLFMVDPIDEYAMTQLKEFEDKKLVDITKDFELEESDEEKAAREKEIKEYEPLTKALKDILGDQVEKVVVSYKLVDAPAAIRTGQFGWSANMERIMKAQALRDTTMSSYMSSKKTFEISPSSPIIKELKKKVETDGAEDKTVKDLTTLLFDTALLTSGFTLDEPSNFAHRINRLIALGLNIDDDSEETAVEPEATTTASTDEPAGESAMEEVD

Consider `CS(=O)(=O)N1N=C(c2ccc(Br)cc2)CC1c1ccc2c(c1)OCO2` (stereo not drawn), for which, in the experiment with HeLa, the AC50 is 61.3 µM (active). In addition, the EC50 is 0.467 µM (active) in experiment [1]; 0.174 µM (active) in [2]; 0.328 µM (active) in experiment [3]; < 0.1 µM (active) in experiment [4]; < 0.1 µM (active) in the experiment with H4; 0.344 µM (active) in experiment [5].

As to `Cc1ccc(C(=O)C2=C(O)C(=O)N(Cc3ccco3)C2c2cccc(Br)c2)o1` (stereo not drawn), the EC50 on Streptokinase A is > 150 µM (not active); in the experiment on Streptococcus it was 11.2 µM (active); in experiment [6], 6.16 µM (active); in [7] it was > 300 µM (not active); in experiment [8], 18.3 µM (inconclusive); in experiment [9], 35.6 µM (active).

For the compound `CCOc1cc(/C=C2/NC(=S)NC2=O)ccc1OCc1ccc([N+](=O)[O-])cc1`, the half-maximal effective concentration (EC50) is 8.31 µM (active) at Streptokinase A, > 150 µM (not active) with Streptococcus and 3.85 µM (active) in experiment [6]. Also, in [10], the IC50 is 3.76 µM (active). Moreover, the AC50 in experiment [11] was 8.19 µM (active).

In the case of `Clc1ccc(-n2nnc(-c3cc4ccccc4nc3Cl)n2)cn1`, the 50% inhibitory concentration (IC50) at Bcl-2-related protein A1 [12] and on Bcl-2-related protein A1 [13] was > 100 µM (not active) in each case.

In the case of `O=C(CNc1ccc2ccccc2c1)N/N=C/c1ccc([N+](=O)[O-])o1`, the EC50 in experiment [14] was > 160 µM (inactive); on Streptokinase A, > 150 µM (not active); in experiment [15] it was 14.2 µM (active); in the experiment “cells”, 0.019 µM (active); in [16], > 60 µM (not active); in experiment [17] it was < 0.1 µM (active). Further, the EC50 is > 180 µM (inactive) in [18]; > 160 µM (inactive) in experiment [19]; > 150 µM (not active) with Streptococcus; 11.1 µM (active) in experiment [6]; 3.85 µM (active) in [20]; 15.9 µM (active) in experiment [21]. The AC50 in experiment [11] is 4.95 µM (active).

For orientation: AC50 means the concentration at which the activity in the assay is half-maximal. What is called EC50 is the concentration at which the effect is half-maximal. As a reminder, the IC50 is the midpoint of a concentration-inhibition curve.

The values are drawn from ChEMBL document CHEMBL1201862, “PubChem BioAssay data set” (2004).
